One assay relates to GP2d cells (KRAS G12D). Briefly: Cell-based pERK HTRF assay in GP2d cell (Biological Example 2). As to conditions: GP2d (KRAS G12D) cells. The procedure, abridged:
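Phospho-ERK in lysed cells was detected by HTRF using Eu cryptate and d2 antibodies, read between 4 and 24 h at room temperature. Prior to lysis, KRAS G12D GP2d cells, seeded the day before in DMEM with 10% FBS, were exposed to compounds for 60 min. Compounds were tested as 9-point half-log curves from 1 μM or 100 nM top, with 0.25% DMSO.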

The target of assay [1] is T1, Avi-KRAS G12R (1-169) GppNHp/RAF1 RBD-3xFLAG (52-151) (Homo sapiens, UniProt P01116, G12R).
T1 construct: Avi-KRAS G12R (1-169)
The assay is described as follows: Raf1-KRAS G12R-GppNHP disruption HTRF assay (Biological Example 1). It is filed as binding. The settings on record: KRAS G12R-GppNHp/RAF1 RBD HTRF. The procedure, abridged:
(§1)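 Read-out is HTRF signal of the KRAS–RAF1 RBD complex, reported as percentage of activity relative to DMSO (100%). Protein mix and detection reagents each incubated 1 h at room temperature with 700 rpm shaking. Buffer: 50 mM Tris pH 7.5, 100 mM NaCl, 5 mM MgCl2, 0.1% BSA, 0.01% Tween, 10% DMSO.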

Assay [2] addresses T2, Avi-KRAS G12V (1-169) GppNHp/RAF1 RBD-3xFLAG (52-151) (Homo sapiens, UniProt P01116, G12V).
T2 construct: Avi-KRAS G12V (1-169)
The assay is described as follows: Raf1-KRAS G12V-GppNHP disruption HTRF assay (Biological Example 1). The settings on record: KRAS G12V-GppNHp/RAF1 RBD HTRF. The assay is classed as binding. The procedure, abridged: as §1
A general note: In TR-FRET formats the signal depends on donor and acceptor labels being close together.

Assay [3] deals with T3, Avi-KRAS WT (1-169) GppNHp/RAF1 RBD-3xFLAG (52-151) (Homo sapiens, UniProt P01116).
T3 construct: Avi-KRAS WT (1-169)
The assay is described as follows: Raf1-KRAS WT-GppNHP disruption HTRF assay (Biological Example 1). It is filed as binding. The settings on record: KRAS WT-GppNHp/RAF1 RBD HTRF. Put shortly: as §1

The target of assay [4] is T4, Avi-KRAS G12V (2-169) GTP/RAF1 RBD-3xFLAG (51-131) (Homo sapiens, UniProt P01116, G12V).
T4 construct: Avi-KRAS G12V (2-169)
The assay is described as follows: Raf1-KRAS G12V-GTP disruption HTRF assay (Biological Example 3). It is filed as binding. As to conditions: KRAS G12V, GTP-loaded. Put shortly:
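HTRF PPI read-out (ex 320 nm, em 615 nm) after 1 h RT incubation with shaking; data as % activity vs DMSO (100%), IC50 from curve fit. Complex 50 nM, RBD reagent 75 nM; compound 30-0.005 μM, 3-fold.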

SMILES strings stand for the structures. Where only a bound is given, the exact number is not on record here.

T2 sequence (P01116 1-169 isoform P01116-2 G12V): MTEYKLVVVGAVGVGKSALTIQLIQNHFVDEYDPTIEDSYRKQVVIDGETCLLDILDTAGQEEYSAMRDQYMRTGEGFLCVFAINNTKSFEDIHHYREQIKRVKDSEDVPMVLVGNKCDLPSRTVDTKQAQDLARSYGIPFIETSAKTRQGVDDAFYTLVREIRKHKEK
T4 sequence (P01116 2-169 isoform P01116-2 G12V): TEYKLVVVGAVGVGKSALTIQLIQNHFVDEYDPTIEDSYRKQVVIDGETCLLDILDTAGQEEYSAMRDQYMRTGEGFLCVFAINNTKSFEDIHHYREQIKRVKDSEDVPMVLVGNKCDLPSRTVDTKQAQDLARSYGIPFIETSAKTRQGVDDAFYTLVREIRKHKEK
T3 sequence (P01116 1-169 isoform P01116-2): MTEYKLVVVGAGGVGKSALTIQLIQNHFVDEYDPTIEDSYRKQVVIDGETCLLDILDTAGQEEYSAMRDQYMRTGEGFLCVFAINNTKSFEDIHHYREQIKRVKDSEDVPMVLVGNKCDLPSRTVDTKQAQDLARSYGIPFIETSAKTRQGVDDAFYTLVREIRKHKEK
T1 sequence (P01116 1-169 isoform P01116-2 G12R): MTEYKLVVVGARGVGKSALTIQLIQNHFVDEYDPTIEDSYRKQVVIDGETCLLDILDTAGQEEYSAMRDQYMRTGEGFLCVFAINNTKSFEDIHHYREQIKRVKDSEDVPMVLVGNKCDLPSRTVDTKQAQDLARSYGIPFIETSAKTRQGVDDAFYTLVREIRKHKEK

The IC50 is the point on the concentration scale where inhibition reaches its midpoint. Take `CCN(c1nc(OC[C@@]23CCCN2C[C@H](F)C3)nc2c(F)c(-c3ccc(F)c4sc(N)c(C#N)c34)c(C(F)(F)F)cc12)[C@H]1CCN(C(=O)C(C)C)C1` (atropisomer, axis not shown) [Compound 468]: the IC50 in the assay with GP2d cells (KRAS G12D) (pERK HTRF) was 0.1 to 1 µM; in assay [1], over 10 µM; in assay [2], over 10 µM; in assay [3] it was over 10 µM.

For the compound `CCN(c1nc(OC[C@@]23CCCN2C[C@H](F)C3)nc2c(F)c(-c3ccc(F)c4sc(N)c(C#N)c34)c(C(F)(F)F)cc12)[C@H]1CCS(=O)(=O)C1` (atropisomer, axis not shown) [Compound 492], the IC50 with GP2d cells (KRAS G12D) (pERK HTRF) is under 0.1 µM; in assay [1], under 0.1 µM; in assay [2] it was 0.1 to 1 µM; in assay [3], under 0.1 µM.

As to `CN(C)C(=O)[C@@H]1CC[C@@H](N(C)c2nc(OC[C@@]34CCCN3C[C@H](F)C4)nc3c(F)c(-c4ccc(F)c5sc(N)c(C#N)c45)c(C(F)(F)F)cc23)C1` (atropisomer, axis not shown) [Compound 512], the IC50 is under 0.1 µM in the assay with GP2d cells (KRAS G12D) (GP2d); under 0.1 µM in the assay on GP2d cells (KRAS G12D) (GP2d, pERK HTRF); 0.1 to 1 µM in assay [1]; 1 to 10 µM in assay [4]; 0.1 to 1 µM in assay [2]; 0.1 to 1 µM in assay [3].

As for `CCN(c1nc(OC[C@@]23CCCN2C[C@H](F)C3)nc2c(F)c(-c3ccc(F)c4sc(N)c(C#N)c34)c(C(F)(F)F)cc12)[C@H]1C[C@@H]2COC(=O)N2C1` (atropisomer, axis not shown) [Compound 519], the IC50 with GP2d cells (KRAS G12D) (GP2d) is under 0.1 µM; with GP2d cells (KRAS G12D) (GP2d, pERK HTRF), under 0.1 µM; in assay [1] it was under 0.1 µM; in assay [4], 0.1 to 1 µM; in assay [2], 0.1 to 1 µM; in assay [3], under 0.1 µM.

On to `CCC(=O)N1CC[C@@H](N(CC)c2nc(OC[C@@]34CCCN3C[C@H](F)C4)nc3c(F)c(-c4ccc(F)c5sc(N)c(C#N)c45)c(C(F)(F)F)cc23)[C@H]1C` (atropisomer, axis not shown) [Compound 523], for which the IC50 with GP2d cells (KRAS G12D) (pERK HTRF) is under 0.1 µM; in the assay on GP2d cells (KRAS G12D) (GP2d), under 0.1 µM; in assay [1] it was under 0.1 µM; in assay [4], at most 0.1 µM; in assay [2], under 0.1 µM; in assay [3], under 0.1 µM.

As to `CCN(c1nc(OC[C@@]23CCCN2C[C@H](F)C3)nc2c(F)c(-c3ccc(F)c4sc(N)c(C#N)c34)c(C(F)(F)F)cc12)[C@@H]1CCN(C(=O)C2CC2)[C@@H]1C` (atropisomer, axis not shown) [Compound 524], the IC50 in the assay on GP2d cells (KRAS G12D) (pERK HTRF) is under 0.1 µM; in the assay with GP2d cells (KRAS G12D) (GP2d), under 0.1 µM; in assay [1], under 0.1 µM; in assay [4], at most 0.1 µM; in assay [2], under 0.1 µM; in assay [3], under 0.1 µM.

For `CCN(c1nc(OC[C@@]23CCCN2C[C@H](F)C3)nc2c(F)c(-c3ccc(F)c4sc(N)c(C#N)c34)c(C(F)(F)F)cc12)[C@@H]1C[C@@H](C)N(C(C)=O)C1` (atropisomer, axis not shown) [Compound 527], the half-maximal inhibitory concentration (IC50) in the assay with GP2d cells (KRAS G12D) (GP2d) is under 0.1 µM; with GP2d cells (KRAS G12D) (GP2d, pERK HTRF), under 0.1 µM; in assay [1] it was 0.1 to 1 µM; in assay [4], 0.1 to 1 µM; in assay [2], 0.1 to 1 µM; in assay [3], 0.1 to 1 µM.

Consider `CCN(c1nc(OC[C@@]23CCCN2C[C@H](F)C3)nc2c(F)c(-c3ccc(F)c4sc(N)c(C#N)c34)c(C(F)(F)F)cc12)[C@@H]1C[C@H]2CCC(=O)N2C1` (atropisomer, axis not shown) [Compound 532], for which the half-inhibitory concentration (IC50) in the assay on GP2d cells (KRAS G12D) (GP2d) is under 0.1 µM; in the assay on GP2d cells (KRAS G12D) (GP2d, pERK HTRF), under 0.1 µM; in assay [1], 0.1 to 1 µM; in assay [4], 0.1 to 1 µM; in assay [2] it was 0.1 to 1 µM; in assay [3], 0.1 to 1 µM.

Regarding `CCC(=O)N1C[C@H](N(CC)c2nc(OC[C@@]34CCCN3C[C@H](F)C4)nc3c(F)c(-c4ccc(F)c5sc(N)c(C#N)c45)c(C(F)(F)F)cc23)C[C@@H]1C` (atropisomer, axis not shown) [Compound 533], the IC50 in the assay on GP2d cells (KRAS G12D) (GP2d) was under 0.1 µM; in the assay on GP2d cells (KRAS G12D) (GP2d, pERK HTRF) it was under 0.1 µM; in assay [1] it was 0.1 to 1 µM; in assay [4], 0.1 to 1 µM; in assay [2], 0.1 to 1 µM; in assay [3] it was 0.1 to 1 µM.

`CCN(c1nc(OC[C@@]23CCCN2C[C@H](F)C3)nc2c(F)c(-c3ccc(F)c4sc(N)c(C#N)c34)c(C(F)(F)F)cc12)[C@@H]1C[C@H](C)N(C(C)=O)C1` (atropisomer, axis not shown) [Compound 534]: the IC50 was under 0.1 µM in the assay with GP2d cells (KRAS G12D) (GP2d); under 0.1 µM with GP2d cells (KRAS G12D) (GP2d, pERK HTRF); 0.1 to 1 µM in assay [1]; 0.1 to 1 µM in assay [4]; 0.1 to 1 µM in assay [2]; 0.1 to 1 µM in assay [3].

For the compound `CCN(c1nc(OC[C@@]23CCCN2C[C@H](F)C3)nc2c(F)c(-c3ccc(F)c4sc(N)c(C#N)c34)c(C(F)(F)F)cc12)[C@H]1C[C@H](C)N(C(=O)COC)C1` (atropisomer, axis not shown) [Compound 538], the IC50 was under 0.1 µM in the assay on GP2d cells (KRAS G12D) (GP2d); under 0.1 µM with GP2d cells (KRAS G12D) (GP2d, pERK HTRF); under 0.1 µM in assay [1]; at most 0.1 µM in assay [4]; under 0.1 µM in assay [2]; under 0.1 µM in assay [3].

`CCN(c1nc(OC[C@@]23CCCN2C[C@H](F)C3)nc2c(F)c(-c3ccc(F)c4sc(N)c(C#N)c34)c(C(F)(F)F)cc12)[C@H]1C[C@H](C)N(C(=O)C2COC2)C1` (atropisomer, axis not shown) [Compound 539]: the IC50 in the assay with GP2d cells (KRAS G12D) (GP2d) is under 0.1 µM; in the assay with GP2d cells (KRAS G12D) (GP2d, pERK HTRF) it was under 0.1 µM; in assay [1], under 0.1 µM; in assay [4] it was 0.1 to 1 µM; in assay [2], under 0.1 µM; in assay [3], under 0.1 µM.

Take `CCN(c1nc(OC[C@@]23CCCN2C[C@H](F)C3)nc2c(F)c(-c3ccc(F)c4sc(N)c(C#N)c34)c(C(F)(F)F)cc12)[C@H]1CCN(C(=O)N(C)C)C1` (atropisomer, axis not shown) [Compound 540, (3S)-3-[[7-(2-amino-3-cyano-7-fluoro-benzothiophen-4-yl)-8-fluoro-2-[[(2R,8S)-2-fluoro-1,2,3,5,6,7-hexahydropyrrolizin-8-yl]methoxy]-6-(trifluoromethyl)quinazolin-4-yl]-ethyl-amino]-N,N-dimethyl-pyrrolidine-1-carboxamide]: the IC50 was under 0.1 µM in the assay with GP2d cells (KRAS G12D) (GP2d) and at most 0.1 µM in assay [4].

For the compound `CCN(c1nc(OC[C@@]23CCCN2C[C@H](F)C3)nc2c(F)c(-c3ccc(F)c4sc(N)c(C#N)c34)c(C(F)(F)F)cc12)[C@H]1CCN(C(=O)OC)C1` (atropisomer, axis not shown) [Compound 541, methyl(3S)-3-[[7-(2-amino-3-cyano-7-fluoro-benzothiophen-4-yl)-8-fluoro-2-[[(2R,8S)-2-fluoro-1,2,3,5,6,7-hexahydropyrrolizin-8-yl]methoxy]-6-(trifluoromethyl)quinazolin-4-yl]-ethyl-amino]pyrrolidine-1-carboxylate], the IC50 was under 0.1 µM in the assay on GP2d cells (KRAS G12D); under 0.1 µM in the assay with GP2d cells (KRAS G12D) (pERK HTRF); under 0.1 µM in assay [1]; at most 0.1 µM in assay [4]; under 0.1 µM in assay [2]; under 0.1 µM in assay [3].

Consider `CCOC(=O)N1CC[C@H](N(CC)c2nc(OC[C@@]34CCCN3C[C@H](F)C4)nc3c(F)c(-c4ccc(F)c5sc(N)c(C#N)c45)c(C(F)(F)F)cc23)C1` [Compound 467], for which the IC50 in the assay on GP2d cells (KRAS G12D) (GP2d, pERK HTRF) was under 0.1 µM; in assay [1], under 0.1 µM; in assay [2] it was under 0.1 µM; in assay [3], 0.1 to 1 µM.

`CCN(c1nc(OC[C@@]23CCCN2C[C@H](F)C3)nc2c(F)c(-c3ccc(F)c4sc(N)c(C#N)c34)c(C(F)(F)F)cc12)[C@H]1C[C@H](C)N(C(=O)C2CC2)C1` [Compound 470]: the IC50 with GP2d cells (KRAS G12D) (GP2d, pERK HTRF) is under 0.1 µM; in assay [1], under 0.1 µM; in assay [2] it was under 0.1 µM; in assay [3] it was under 0.1 µM.

For the compound `Cc1cc2n(n1)CCN(c1nc(OCC34CCCN3CC(F)C4)nc3c(F)c(-c4ccc(F)c5sc(N)c(C#N)c45)c(C(F)(F)F)cc13)C2` (centres unmarked) [Compound 484], the IC50 with GP2d cells (KRAS G12D) (GP2d, pERK HTRF) is under 0.1 µM; in assay [1], 1 to 10 µM; in assay [2] it was 1 to 10 µM; in assay [3] it was 1 to 10 µM.

With `N#Cc1c(N)sc2c(F)ccc(-c3c(C(F)(F)F)cc4c(N5CCn6nc(N7CCOCC7)cc6C5)nc(OC[C@@]56CCCN5C[C@H](F)C6)nc4c3F)c12` [Compound 485], the IC50 is under 0.1 µM in the assay with GP2d cells (KRAS G12D) (GP2d, pERK HTRF); 1 to 10 µM in assay [1]; 1 to 10 µM in assay [2]; 1 to 10 µM in assay [3].
